According to patent US10028957B2, “Depot formulations” (DURECT CORPORATION, priority 2007, dated 2018):

Assay: Solvent capacity experiments (solvent added until single phase persists one week)
Type: physicochemical
Conditions: fixed PLGA/SAIB ratio, room temperature, weight percent of total final weight
[1] = Example 7, PLGA 4700 Da, 65/35, hexanediol initiated
[2] = Example 8, PLGA 6600 Da, 65/35, dodecanol initiated

Compound	amount of solvent needed for a single phase solution that remained single phase for one week [1] [wt %]	amount of solvent needed for a single phase solution that remained single phase for one week [2] [wt %]
OCc1ccccc1 [BA, benzyl alcohol]	26.44	19.70
C[S+](C)[O-] [DMSO, dimethylsulfoxide]	42.64	31.22
